From patent US12077503B2, “Substituted cyclic amides and their use as herbicides” (FMC CORPORATION, priority 2015, dated 2024)

Assays:
Format in all cases: in vivo
[1] = tested on: barnyardgrass (Echinochloa crus-galli); assay: Test G Pre-Emergence Protocol; details: Echinochloa crus-galli, pre-emergence, 312 h, evaluated after 13 days; for pest or weed control at 15.625 g/ha: 15.625 g ai/ha; for pest or weed control at 15.625 g/ha / pest or weed control at 250 g/ha: read-out: Barnyardgrass damage rating (100=total damage to plant; 0=no damage to plant); for pest or weed control at 62.5 g/ha: 62.5 g ai/ha, 100=total damage to plant, 0=no damage to plant, read-out: Barnyardgrass damage rating; for pest or weed control at 250 g/ha: 250 g ai/ha
How it was run: (§1)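 Pre-emergence spray, 15.625/62.5/250 g/ha, vehicle acetone:water 50:50 + 0.5% Tween 20, applied 1 d after sowing. Glasshouse 24/16° C, 14 h light, 65% RH, watered twice daily. Visual damage rating at 13 d, 0–100 scale.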

[2] = tested on: corn (Zea mays); assay: Test G Pre-Emergence Protocol; details: Zea mays, pre-emergence, 312 h, evaluated after 13 days; for plant injury at 15.625 g/ha: 15.625 g ai/ha; for plant injury at 15.625 g/ha / plant injury at 250 g/ha: read-out: Corn damage rating (100=total damage to plant; 0=no damage to plant); for plant injury at 62.5 g/ha: 62.5 g ai/ha, 100=total damage to plant, 0=no damage to plant, read-out: Corn damage rating; for plant injury at 250 g/ha: 250 g ai/ha
How it was run: as §1

[3] = tested on: giant foxtail (Setaria faberi); assay: Test G Pre-Emergence Protocol; details: Setaria faberi, pre-emergence, 312 h, evaluated after 13 days; for pest or weed control at 15.625 g/ha: 15.625 g ai/ha; for pest or weed control at 15.625 g/ha / pest or weed control at 250 g/ha: read-out: Foxtail, Giant damage rating (100=total damage to plant; 0=no damage to plant); for pest or weed control at 62.5 g/ha: 62.5 g ai/ha, 100=total damage to plant, 0=no damage to plant, read-out: Foxtail, Giant damage rating; for pest or weed control at 250 g/ha: 250 g ai/ha
How it was run: as §1

[4] = tested on: ivy-leaved morning glory (Ipomoea hederacea); assay: Test G Pre-Emergence Protocol; details: Ipomoea, pre-emergence, 312 h, evaluated after 13 days; for pest or weed control at 15.625 g/ha: 15.625 g ai/ha; for pest or weed control at 15.625 g/ha / pest or weed control at 250 g/ha: read-out: Morningglory, Ivy-leaved damage rating (100=total damage to plant; 0=no damage to plant); for pest or weed control at 62.5 g/ha: 62.5 g ai/ha, 100=total damage to plant, 0=no damage to plant, read-out: Morningglory, Ivy-leaved damage rating; for pest or weed control at 250 g/ha: 250 g ai/ha
How it was run: as §1

[5] = tested on: redroot pigweed (Amaranthus retroflexus); assay: Test G Pre-Emergence Protocol; details: Amaranthus retroflexus, pre-emergence, 312 h, evaluated after 13 days; for pest or weed control at 15.625 g/ha: 15.625 g ai/ha; for pest or weed control at 15.625 g/ha / pest or weed control at 250 g/ha: read-out: Pigweed, Redroot damage rating (100=total damage to plant; 0=no damage to plant); for pest or weed control at 62.5 g/ha: 62.5 g ai/ha, 100=total damage to plant, 0=no damage to plant, read-out: Pigweed, Redroot damage rating; for pest or weed control at 250 g/ha: 250 g ai/ha
How it was run: as §1

[6] = tested on: velvetleaf (Abutilon theophrasti); assay: Test G Pre-Emergence Protocol; details: Abutilon theophrasti, pre-emergence, 312 h, evaluated after 13 days; for pest or weed control at 15.625 g/ha: 15.625 g ai/ha; for pest or weed control at 15.625 g/ha / pest or weed control at 250 g/ha: read-out: Velvetleaf damage rating (100=total damage to plant; 0=no damage to plant); for pest or weed control at 62.5 g/ha: 62.5 g ai/ha, 100=total damage to plant, 0=no damage to plant, read-out: Velvetleaf damage rating; for pest or weed control at 250 g/ha: 250 g ai/ha
How it was run: as §1

[7] = tested on: barnyardgrass (Echinochloa crus-galli); assay: Test G Post-Emergence Protocol; details: Echinochloa crus-galli, post-emergence, 312 h, read-out: Barnyardgrass damage rating; for pest or weed control at 15.625 g/ha: 15.625 g ai/ha, evaluated after 13 days (100=total damage to plant; 0=no damage to plant); for pest or weed control at 62.5 g/ha: 62.5 g ai/ha; for pest or weed control at 62.5 g/ha / pest or weed control at 250 g/ha: evaluated after 13 days, 100=total damage to plant, 0=no damage to plant; for pest or weed control at 250 g/ha: 250 g ai/ha
How it was run: (§2)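 Seedlings grown 8 days in soil in a glasshouse (24/16 °C day/night, 14 h light, 65% humidity) were sprayed post-emergence with compound in acetone/water 50:50 plus 0.5% Tween 20 at 15.625, 62.5 or 250 g/ha. Damage was scored after 13 days on a 0–100 scale (100 = total damage).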

[8] = tested on: corn (Zea mays); assay: Test G Post-Emergence Protocol; details: Zea mays, post-emergence, 312 h, read-out: Corn damage rating; for plant injury at 15.625 g/ha: 15.625 g ai/ha, evaluated after 13 days (100=total damage to plant; 0=no damage to plant); for plant injury at 62.5 g/ha: 62.5 g ai/ha; for plant injury at 62.5 g/ha / plant injury at 250 g/ha: evaluated after 13 days, 100=total damage to plant, 0=no damage to plant; for plant injury at 250 g/ha: 250 g ai/ha
How it was run: as §2

[9] = tested on: giant foxtail (Setaria faberi); assay: Test G Post-Emergence Protocol; details: Setaria faberi, post-emergence, 312 h, read-out: Foxtail, Giant damage rating; for pest or weed control at 15.625 g/ha: 15.625 g ai/ha, evaluated after 13 days (100=total damage to plant; 0=no damage to plant); for pest or weed control at 62.5 g/ha: 62.5 g ai/ha; for pest or weed control at 62.5 g/ha / pest or weed control at 250 g/ha: evaluated after 13 days, 100=total damage to plant, 0=no damage to plant; for pest or weed control at 250 g/ha: 250 g ai/ha
How it was run: as §2

[10] = tested on: ivy-leaved morning glory (Ipomoea hederacea); assay: Test G Post-Emergence Protocol; details: Ipomoea, post-emergence, 312 h, read-out: Morningglory, Ivy-leaved damage rating; for pest or weed control at 15.625 g/ha: 15.625 g ai/ha, evaluated after 13 days (100=total damage to plant; 0=no damage to plant); for pest or weed control at 62.5 g/ha: 62.5 g ai/ha; for pest or weed control at 62.5 g/ha / pest or weed control at 250 g/ha: evaluated after 13 days, 100=total damage to plant, 0=no damage to plant; for pest or weed control at 250 g/ha: 250 g ai/ha
How it was run: as §2

[11] = tested on: redroot pigweed (Amaranthus retroflexus); assay: Test G Post-Emergence Protocol; details: Amaranthus retroflexus, post-emergence, 312 h, read-out: Pigweed, Redroot damage rating; for pest or weed control at 15.625 g/ha: 15.625 g ai/ha, evaluated after 13 days (100=total damage to plant; 0=no damage to plant); for pest or weed control at 62.5 g/ha: 62.5 g ai/ha; for pest or weed control at 62.5 g/ha / pest or weed control at 250 g/ha: evaluated after 13 days, 100=total damage to plant, 0=no damage to plant; for pest or weed control at 250 g/ha: 250 g ai/ha
How it was run: as §2

[12] = tested on: velvetleaf (Abutilon theophrasti); assay: Test G Post-Emergence Protocol; details: Abutilon theophrasti, post-emergence, 312 h, read-out: Velvetleaf damage rating; for pest or weed control at 15.625 g/ha: 15.625 g ai/ha, evaluated after 13 days (100=total damage to plant; 0=no damage to plant); for pest or weed control at 62.5 g/ha: 62.5 g ai/ha; for pest or weed control at 62.5 g/ha / pest or weed control at 250 g/ha: evaluated after 13 days, 100=total damage to plant, 0=no damage to plant; for pest or weed control at 250 g/ha: 250 g ai/ha
How it was run: as §2

COc1cc(C2CN(C)C(=O)C2C(=O)Nc2cccc(F)c2F)cc(C)c1C (stereo not drawn) [Compound 1713]
pest or weed control at 15.625 g/ha [1]: 30%
pest or weed control at 62.5 g/ha [1]: 70%
pest or weed control at 250 g/ha [1]: 90%
plant injury at 15.625 g/ha [2]: 10%
plant injury at 62.5 g/ha [2]: 20%
plant injury at 250 g/ha [2]: 90%
pest or weed control at 15.625 g/ha [3]: 50%
pest or weed control at 62.5 g/ha [3]: 70%
pest or weed control at 250 g/ha [3]: 90%
pest or weed control at 15.625 g/ha [4]: 0%
pest or weed control at 62.5 g/ha [4]: 0%
pest or weed control at 250 g/ha [4]: 0%
pest or weed control at 15.625 g/ha [5]: 0%
pest or weed control at 62.5 g/ha [5]: 0%
pest or weed control at 250 g/ha [5]: 0%
pest or weed control at 15.625 g/ha [6]: 0%
pest or weed control at 62.5 g/ha [6]: 0%
pest or weed control at 250 g/ha [6]: 0%
pest or weed control at 15.625 g/ha [7]: 10%
pest or weed control at 62.5 g/ha [7]: 80%
pest or weed control at 250 g/ha [7]: 80%
plant injury at 15.625 g/ha [8]: 0%
plant injury at 62.5 g/ha [8]: 50%
plant injury at 250 g/ha [8]: 80%
pest or weed control at 15.625 g/ha [9]: 60%
pest or weed control at 62.5 g/ha [9]: 80%
pest or weed control at 250 g/ha [9]: 80%
pest or weed control at 15.625 g/ha [10]: 20%
pest or weed control at 62.5 g/ha [10]: 60%
pest or weed control at 250 g/ha [10]: 70%
pest or weed control at 15.625 g/ha [11]: 0%
pest or weed control at 62.5 g/ha [11]: 0%
pest or weed control at 250 g/ha [11]: 0%
pest or weed control at 15.625 g/ha [12]: 0%
pest or weed control at 62.5 g/ha [12]: 0%
pest or weed control at 250 g/ha [12]: 20%

CCOc1ccc(C2CN(C)C(=O)C2C(=O)Nc2cccc(F)c2F)cc1F (stereo not drawn) [Compound 1717]
pest or weed control at 15.625 g/ha [1]: 0%
pest or weed control at 62.5 g/ha [1]: 40%
pest or weed control at 250 g/ha [1]: 90%
plant injury at 15.625 g/ha [2]: 0%
plant injury at 62.5 g/ha [2]: 0%
plant injury at 250 g/ha [2]: 0%
pest or weed control at 15.625 g/ha [3]: 60%
pest or weed control at 62.5 g/ha [3]: 90%
pest or weed control at 250 g/ha [3]: 90%
pest or weed control at 15.625 g/ha [4]: 0%
pest or weed control at 62.5 g/ha [4]: 0%
pest or weed control at 250 g/ha [4]: 0%
pest or weed control at 15.625 g/ha [5]: 0%
pest or weed control at 62.5 g/ha [5]: 10%
pest or weed control at 250 g/ha [5]: 20%
pest or weed control at 15.625 g/ha [6]: 0%
pest or weed control at 62.5 g/ha [6]: 10%
pest or weed control at 250 g/ha [6]: 0%
pest or weed control at 15.625 g/ha [7]: 0%
pest or weed control at 62.5 g/ha [7]: 60%
pest or weed control at 250 g/ha [7]: 70%
plant injury at 15.625 g/ha [8]: 0%
plant injury at 62.5 g/ha [8]: 0%
plant injury at 250 g/ha [8]: 10%
pest or weed control at 15.625 g/ha [9]: 30%
pest or weed control at 62.5 g/ha [9]: 70%
pest or weed control at 250 g/ha [9]: 80%
pest or weed control at 15.625 g/ha [10]: 0%
pest or weed control at 62.5 g/ha [10]: 0%
pest or weed control at 250 g/ha [10]: 0%
pest or weed control at 15.625 g/ha [11]: 0%
pest or weed control at 62.5 g/ha [11]: 0%
pest or weed control at 250 g/ha [11]: 0%
pest or weed control at 15.625 g/ha [12]: 0%
pest or weed control at 62.5 g/ha [12]: 0%
pest or weed control at 250 g/ha [12]: 0%
